Values of other authors in patent publication US8859560B2, “Treating attention deficit hyperactivity disorder with NHE inhibitors” (The Research Foundation of State University of New York, priority 2012, dated 2014).

Key:
[1] = system: sodium/hydrogen exchanger (NHE) subtypes; details: for NHE subtype selectivity of inhibition: prior knowledge from Masereel et al. 2003
[2] = pediatric patients, extended-release tablets (Jain et al. 2011)

SMILES	NHE subtype selectivity of inhibition [1]	Inhibition of plasma membrane NHEs ([1]; plasma membrane NHEs (NHE1-NHE5))	Efficacy as drug for ADHD [2]
N=C(N)NC(=O)c1nc(Cl)c(N)nc1N [amiloride]	limited NHE subtype selectivity	–	–
C=C[C@H]1C[N@@]2CC[C@H]1C[C@H]2[C@H](O)c1ccnc2ccc(OC)cc12 [quinine]	selectively inhibits NHE7	–	–
CC(=Cc1cc(C)ccc1C=C(C)C(=O)NC(=N)N)C(=O)N=C(C)C [S3226]	selectively inhibits NHE3	–	–
Clc1cccc(Cl)c1N=C1NCCN1 [clonidine]	–	modest inhibitor	moderately efficacious
COc1ccc2c3c([nH]c2c1)C(C)=NCC3 [harmaline]	selectively inhibits NHE5	–	–
CC(C)c1ccc(C(=O)NC(=N)N)cc1S(C)(=O)=O [cariporide]	selectively inhibits NHE1	–	–
